# How the values were obtained:
# [1] = system: phagocyte; test: 2-BrHDA phagocyte chemoattractant activity; assay type: cell-based; conditions: phagocytes
# [2] = system: HepG2 cells; test: 2-chloropalmitic acid metabolism by HepG2 cells (GC-MS); assay type: in vitro ADME; conditions: added to cell culture medium, FIG. 9 Panel A
# From the text: Two other chlorinated lipids that have prognostic value are α-chloroadipic acid and α-ClFA that is complexed (stored) in triglyceride pools. α-ClFA is metabolized by either storage in triglyceride pools or is broken down in the liver (FIG. 8). In brief α-ClFA is omega oxidized to produce dicarboxylic acids that are shortened and eventually excreted in the urine. […] Concomitant with the loss of 2-chloropalmitic acid is the accumulation of the omega oxidation product, 2-chlorohexadecanedioc acid (Panel B of FIG. 9). Further metabolism of 2-chlorohexadecanedioc acid leads to 2-chlorotetradecanedioc acid (Panel C of FIG. 9) and eventually 2-chloroadipic acid (Panel D of FIG. 9). These metabolites were quantified using gas chromatography-mass spectrometry techniques employing conversion of the carboxylic acids and dicarboxylic acids to their pentafluorobenzyl ester derivatives and negative ion-chemical ionization mass spectrometry.
# [3] = system: eosinophil peroxidase in PMA-stimulated eosinophils; conditions: physiological concentrations of NaCl and NaBr, FIG. 12
# Protocol: Further studies have shown that reactive brominating species (RBS), produced by either MPO- or EPO-released by activated neutrophil or eosinophil, respectively, target plasmalogens. […] Bromide was the preferred substrate for eosinophil peroxidase and chloride was not appreciably used even at a 1000-fold molar excess. […] 2-BrHDA is preferentially produced in PMA-stimulated eosinophils (+PMA) incubated in the presence of physiological concentrations of NaCl and NaBr (FIG. 12). […] These findings may have implications in eosinophilic heart disease as well as pulmonary disease and some cancers, which include eosinophil infiltrations.
smiles,measurement,setting,value
"CCCCCCCCCCCCCCC(Br)C=O (stereo not drawn) [2-BrHDA, 2-bromohexadecanal]",chemoattractant activity,[1],phagocyte chemoattractant
CCCCCCCCCCCCCCC(Cl)C(=O)O (stereo not drawn) [2-chlorohexadecanoic acid],2-chloropalmitic acid remaining in cell culture medium over time,[2],decreases in a time and concentration dependent manner
[N-]=[N+]=[N-] [azide],2-BrHDA production in the presence of the peroxidase inhibitor,[3],2-BrHDA was not produced

# Reference: US8137978B2, “Diagnostic method for biomarkers of adverse coronary events” (Saint Louis University, priority 2009, dated 2012)
